Structures can show the parent of a compound that is named as a salt.
These compounds were tested against T1, HCV polymerase (Hepatitis C virus genotype 1b, UniProt P26663) (assay: biochemical). Settings: not given.
T1 construct: a region encoding NS5B (J Virol 1991 March, 65(3), 1105-13, 544 amino acids after deletion of 47 amino acids on the C-terminal); 6xHis (C); made in house; host or cells: Escherichia coli
Design: species or system HCV BK strain
Summary of the method: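 Recombinant HCV BK-strain NS5B (C-terminal 47 aa deleted, His6-tagged, E. coli), 0.5 μg/ml, run with 5 μg/ml in vitro-transcribed RNA template (polyU/3′X), ATP/GTP/CTP 50 μM, UTP 2 μM plus [3H]UTP, pH 7.5, 25° C, 90 min. TCA-precipitated RNA counted by scintillation; IC50 from activity with vs without compound.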

T1 sequence (P26663 2420-2963): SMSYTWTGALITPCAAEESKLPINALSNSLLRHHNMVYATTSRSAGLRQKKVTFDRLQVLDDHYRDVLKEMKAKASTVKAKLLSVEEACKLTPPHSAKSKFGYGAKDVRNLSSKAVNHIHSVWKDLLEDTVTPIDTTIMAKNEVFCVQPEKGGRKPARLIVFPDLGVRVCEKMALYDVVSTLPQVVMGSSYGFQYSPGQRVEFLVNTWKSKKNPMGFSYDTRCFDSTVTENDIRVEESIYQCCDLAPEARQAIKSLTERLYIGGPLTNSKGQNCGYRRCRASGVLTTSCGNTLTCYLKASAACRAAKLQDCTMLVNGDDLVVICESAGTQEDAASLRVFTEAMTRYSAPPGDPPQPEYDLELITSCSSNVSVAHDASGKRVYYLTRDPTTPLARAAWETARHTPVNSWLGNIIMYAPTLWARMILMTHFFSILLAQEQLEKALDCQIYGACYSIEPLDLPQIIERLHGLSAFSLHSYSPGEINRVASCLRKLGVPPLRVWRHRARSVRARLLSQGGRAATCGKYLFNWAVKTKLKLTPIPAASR

| SMILES | IC50 [nM] |
| --- | --- |
| Cc1ccc2c(c1)N(CCN1CCCC(OC(C)C)C1)CCn1c-2c(C2CCCCC2)c2ccc(C(=O)O)cc21 (stereo not shown) [Example 1-394, 13-cyclohexyl-5-[2-(3-isopropoxypiperidin-1-yl)ethyl]-3-methyl-6,7-dihydro-5H-benzo[5,6][1,4]diazepino[7,1-a]indole-10-carboxylic acid monohydrochloride] | < 100 |
| CC(C)OC1CCCN(CCN2CCn3c(c(C4CCCCC4)c4ccc(C(=O)O)cc43)-c3ccccc32)C1 (stereo not shown) [Example 1-395, 13-cyclohexyl-5-[2-(3-isopropoxypiperidin-1-yl)ethyl]-6,7-dihydro-5H-benzo[5,6][1,4]diazepino[7,1-a]indole-10-carboxylic acid monohydrochloride] | < 100 |
| CC(C)N1CCCC(CCCN2CCn3c(c(C4CCCCC4)c4ccc(C(=O)O)cc43)-c3ccc(Cl)cc32)C1 (stereo not shown) [Example 1-396, 3-chloro-13-cyclohexyl-5-[3-(1-isopropylpiperidin-3-yl)propyl]-6,7-dihydro-5H-benzo[5,6][1,4]diazepino[7,1-a]indole-10-carboxylic acid dihydrochloride] | < 100 |
| COCC[C@@H]1CCCN(CCN2CCn3c(c(C4CCCCC4)c4ccc(C(=O)O)cc43)-c3ccc(Cl)cc32)C1 [Example 1-397, 3-chloro-13-cyclohexyl-5-{2-[(S)-3-(2-methoxyethyl)piperidin-1-yl]ethyl}-6,7-dihydro-5H-benzo[5,6][1,4]diazepino[7,1-a]indole-10-carboxylic acid dihydrochloride] | < 100 |
| COCC[C@H]1CCCN(CCN2CCn3c(c(C4CCCCC4)c4ccc(C(=O)O)cc43)-c3ccc(Cl)cc32)C1 [Example 1-398, 3-chloro-13-cyclohexyl-5-{2-[(R)-3-(2-methoxyethyl)piperidin-1-yl]ethyl}-6,7-dihydro-5H-benzo[5,6][1,4]diazepino[7,1-a]indole-10-carboxylic acid dihydrochloride] | < 100 |
| O=C(O)c1ccc2c(C3CCCC3)c3n(c2c1)CCN(CCN1CCCCC1)c1ccccc1-3 [Example 1-399, 13-cyclopentyl-5-[2-(piperidin-1-yl)ethyl]-6,7-dihydro-5H-benzo[5,6][1,4]diazepino[7,1-a]indole-10-carboxylic acid monohydrochloride] | < 100 |
| CCN1CCCC(OCCN2CCn3c(c(C4CCCCC4)c4ccc(C(=O)O)cc43)-c3ccc(Cl)cc32)C1 (stereo not shown) [Example 1-400, 3-chloro-13-cyclohexyl-5-[2-(1-ethylpiperidin-3-yloxy)ethyl]-6,7-dihydro-5H-benzo[5,6][1,4]diazepino[7,1-a]indole-10-carboxylic acid dihydrochloride] | < 100 |
| Cc1nc(COc2ccc3c(c2)N(CCN2CCCCC2)CCn2c-3c(C3CCCCC3)c3ccc(C(=O)O)cc32)cs1 [Example 1-401, 13-cyclohexyl-3-(2-methylthiazol-4-ylmethoxy)-5-[2-(piperidin-1-yl)ethyl]-6,7-dihydro-5H-benzo[5,6][1,4]diazepino[7,1-a]indole-10-carboxylic acid dihydrochloride] | < 100 |
| Cc1nc(C)c(COc2ccc3c(c2)N(CCN2CCCCC2)CCn2c-3c(C3CCCCC3)c3ccc(C(=O)O)cc32)s1 [Example 1-402, 13-cyclohexyl-3-(2,4-dimethylthiazol-5-ylmethoxy)-5-[2-(piperidin-1-yl)ethyl]-6,7-dihydro-5H-benzo[5,6][1,4]diazepino[7,1-a]indole-10-carboxylic acid dihydrochloride] | < 100 |
| CCN(CCCN1CCn2c(c(C3CCCCC3)c3ccc(C(=O)O)cc32)-c2ccc(Cl)cc21)C(C)C [Example 1-403, 3-chloro-13-cyclohexyl-5-[3-(N-ethyl-N-isopropylamino)propyl]-6,7-dihydro-5H-benzo[5,6][1,4]diazepino[7,1-a]indole-10-carboxylic acid dihydrochloride] | < 100 |
| O=C(O)c1ccc2c(C3CCCCC3)c3n(c2c1)CCN(CC[C@@H]1CCCN(C2CCCC2)C1)c1cc(Cl)ccc1-3 [Example 1-404, 3-chloro-13-cyclohexyl-5-[2-((S)-1-cyclopentylpiperidin-3-yl)ethyl]-6,7-dihydro-5H-benzo[5,6][1,4]diazepino[7,1-a]indole-10-carboxylic acid dihydrochloride] | < 100 |
| CC(C)OCC1CCCN(CCN2CCn3c(c(C4CCCCC4)c4ccc(C(=O)O)cc43)-c3ccccc32)C1 (stereo not shown) [Example 1-405, 13-cyclohexyl-5-[2-(3-isopropoxymethylpiperidin-1-yl)ethyl]-6,7-dihydro-5H-benzo[5,6][1,4]diazepino[7,1-a]indole-10-carboxylic acid dihydrochloride] | < 100 |
| CC(C)OCC1CCCN(CCN2CCn3c(c(C4CCCCC4)c4ccc(C(=O)O)cc43)-c3ccc(Cl)cc32)C1 (stereo not shown) [Example 1-406, 3-chloro-13-cyclohexyl-5-[2-(3-isopropoxymethylpiperidin-1-yl)ethyl]-6,7-dihydro-5H-benzo[5,6][1,4]diazepino[7,1-a]indole-10-carboxylic acid dihydrochloride] | < 100 |
| Cc1ccc2c(c1)N(CCN1CCCC(COC(C)C)C1)CCn1c-2c(C2CCCCC2)c2ccc(C(=O)O)cc21 (stereo not shown) [Example 1-407, 13-cyclohexyl-5-[2-(3-isopropoxymethylpiperidin-1-yl)ethyl]-3-methyl-6,7-dihydro-5H-benzo[5,6][1,4]diazepino[7,1-a]indole-10-carboxylic acid dihydrochloride] | < 100 |
| O=C(O)c1ccc2c(C3CCCCC3)c3n(c2c1)CCN(CC[C@H]1CCCN(C2CCCC2)C1)c1cc(Cl)ccc1-3 [Example 1-408, 3-chloro-13-cyclohexyl-5-[2-((R)-1-cyclopentylpiperidin-3-yl)ethyl]-6,7-dihydro-5H-benzo[5,6][1,4]diazepino[7,1-a]indole-10-carboxylic acid dihydrochloride] | < 100 |
| COCC[C@H]1CCCN(CCN2CCn3c(c(C4CCCCC4)c4ccc(C(=O)O)cc43)-c3ccc(C)cc32)C1 [Example 1-409, 13-cyclohexyl-5-{2-[(R)-3-(2-methoxyethyl)piperidin-1-yl]ethyl}-3-methyl-6,7-dihydro-5H-benzo[5,6][1,4]diazepino[7,1-a]indole-10-carboxylic acid dihydrochloride] | < 100 |
| CCCN1CCCC(CCN2CCn3c(c(C4CCCCC4)c4ccc(C(=O)O)cc43)-c3ccc(C)cc32)C1 (stereo not shown) [Example 1-410, 13-cyclohexyl-3-methyl-5-[2-(1-propylpiperidin-3-yl)ethyl]-6,7-dihydro-5H-benzo[5,6][1,4]diazepino[7,1-a]indole-10-carboxylic acid dihydrochloride] | < 100 |
| CCN1CCCC(CCCN2CCn3c(c(C4CCCCC4)c4ccc(C(=O)O)cc43)-c3ccc(Cl)cc32)C1 (stereo not shown) [Example 1-411, 3-chloro-13-cyclohexyl-5-[3-(1-ethylpiperidin-3-yl)propyl]-6,7-dihydro-5H-benzo[5,6][1,4]diazepino[7,1-a]indole-10-carboxylic acid dihydrochloride] | < 100 |
| O=C(O)c1ccc2c(C3CCCCC3)c3n(c2c1)CCN(CCCC1CCCN(C2CCCC2)C1)c1cc(Cl)ccc1-3 (stereo not shown) [Example 1-412, 3-chloro-13-cyclohexyl-5-[3-(1-cyclopentylpiperidin-3-yl)propyl]-6,7-dihydro-5H-benzo[5,6][1,4]diazepino[7,1-a]indole-10-carboxylic acid dihydrochloride] | < 100 |
| COCC[C@@H]1CCCN(CCN2CCn3c(c(C4CCCCC4)c4ccc(C(=O)O)cc43)-c3ccc(C)cc32)C1 [Example 1-413, 13-cyclohexyl-5-{2-[(S)-3-(2-methoxyethyl)piperidin-1-yl]ethyl}-3-methyl-6,7-dihydro-5H-benzo[5,6][1,4]diazepino[7,1-a]indole-10-carboxylic acid dihydrochloride] | < 100 |
| CC(C)N1CCCC(CCN2CCn3c(c(C4CCCC4)c4ccc(C(=O)O)cc43)-c3ccc(Cl)cc32)C1 (stereo not shown) [Example 1-414, 3-chloro-13-cyclopentyl-5-[2-(1-isopropylpiperidin-3-yl)ethyl]-6,7-dihydro-5H-benzo[5,6][1,4]diazepino[7,1-a]indole-10-carboxylic acid monohydrochloride] | < 100 |
| O=C(O)c1ccc2c(C3CCCCC3)c3n(c2c1)CCN(CCCCN1CCCCC1)c1cc(Cl)ccc1-3 [Example 1-415, 3-chloro-13-cyclohexyl-5-[4-(piperidin-1-yl)butyl]-6,7-dihydro-5H-benzo[5,6][1,4]diazepino[7,1-a]indole-10-carboxylic acid] | < 100 |
| COC[C@H]1CCCN(CCN2CCn3c(c(C4CCCCC4)c4ccc(C(=O)O)cc43)-c3ccc(C)cc32)C1 [Example 1-417, 13-cyclohexyl-5-[2-((S)-3-methoxymethylpiperidin-1-yl)ethyl]-3-methyl-6,7-dihydro-5H-benzo[5,6][1,4]diazepino[7,1-a]indole-10-carboxylic acid dihydrochloride] | < 100 |
| CS(=O)(=O)c1cccc(COc2ccc3c(c2)N(CCN2CCCCC2)CCn2c-3c(C3CCCCC3)c3ccc(C(=O)O)cc32)c1 [Example 1-418, 13-cyclohexyl-3-(3-methanesulfonylbenzyloxy)-5-[2-(piperidin-1-yl)ethyl]-6,7-dihydro-5H-benzo[5,6][1,4]diazepino[7,1-a]indole-10-carboxylic acid dihydrochloride] | < 100 |

Same assay, conditions: read-out: HCV polymerase inhibitory activity IC50; 25° C., 90 min; [5,6-3H]UTP incorporation into RNA

| SMILES | IC50 [nM] |
| --- | --- |
| COC[C@@H]1CCCN(CCN2CCn3c(c(C4CCCCC4)c4ccc(C(=O)O)cc43)-c3ccc(C)cc32)C1 [Example 1-416, 13-cyclohexyl-5-[2-((R)-3-methoxymethylpiperidin-1-yl)ethyl]-3-methyl-6,7-dihydro-5H-benzo[5,6][1,4]diazepino[7,1-a]indole-10-carboxylic acid dihydrochloride] | < 100 |

From patent publication US20070049593A1 (priority 2004, published 2007)
